In patent publication US9443060B2, “Method and system to provide personalized pharmaceutical compositions and dosages” (Volant Holdings GMBH, priority 2009, dated 2016):

Tests used:
Type in all cases: in vivo, human
[1] = test system: insulin resistance (IR); test: Glucose supply and insulin demand model: effect on insulin resistance; settings: for IR reduction: adjustment factor = decrease in insulin resistance at the therapeutic dose of Table 1, T2D
Protocol: (§1) Therapeutic targets of the glucose supply (CE, 1+2; HGU, 3; GNG, 4; IR, 5) and insulin demand (PGU, 6; PIE, 7) model are presented in FIG. 1. To identify quantitative differences between antidiabetic agents on CE, HGU, GNG, IR, PGU, and PIE, multidatabase searches (Cochrane Central Register of Controlled Trials and Cochrane Register of Systematic Reviews, Embase, OVID Healthstar, OVID Journals, and PubMed) were conducted cross-referencing title and keywords for all selected antidiabetic therapies and their respective targets.
(§2) Alpha-glucosidase, biguanide, and thiazolidinedione (TZD) studies with long-term, pre-post design at maximal therapeutic doses were identified to simulate chronic administration. To maintain consistency with cardiovascular trials and accommodate known influences of hyperglycemia and hyperinsulinemia on the respective targets,^13-16 studies including patients with HbA1c in the range of 6-8% and body mass index (BMI)≧30 kg/m^2 were preferentially selected. In the event multiple studies were available to identify the effect of an agent on a therapeutic target, the mean percent change was used. Conversely, if there was evidence that an agent would elicit a response on a given target but no mathematical representation of the difference was provided, conservative estimates consistent with the scale of other agents and the degree of glucose regulation were instituted to best represent the expected effect. Individual agents were then characterized for the 24 h percent change from baseline for CE, HGU, GNG, IR, PGU, and PIE. Carbohydrate exposure was determined as the combined effect of caloric intake and intestinal carbohydrate absorption. Hepatic glucose uptake was defined as the reported value obtained immediately following oral glucose loading. Because GNG is known to be enhanced in the fasting state and persistent throughout the prandial phase,^17,18 effect was determined during the fasting state and considered equivalent throughout the prandial phase. For studies evaluating fasting glucose and insulin concentrations, an index of IR was determined by homeostasis model assessment of insulin resistance (HOM-AIR) using the following formula: Insulin (mU/liter)×Glucose (mmol)/22.5.^19 To account for known differences in secretory and uptake dynamics during the fasting and prandial phases, studies identifying the impact of therapies during the fasting state (or simulated hyperinsulinemic euglycemic clamp) and prandial phase (or oral glucose load insulin clamp) were specifically identified for changes in PGU (glucose infusion rate) and PIE (insulin concentrations) according to Equation (1): […]
(§3) For sulfonylurea and insulin-based therapies, insulin concentration time profiles were obtained and superimposed on the baseline 24 h insulin concentration time profile of T2D patients (FIG. 2) to calculate the increase in PIE (trapezoidal rule).^20 Calculated increases in incremental and cumulative insulin exposure were correlated to known insulin dose-response effects on HGU, GNG, and PGU (FIG. 3),^18,21 according to the equation y=mx+b. Twenty-four-hour increases in HGU, PGU, and PIE and decreases in GNG were compared to baseline values and percent change calculated.
(§4) With alpha-glucosidase, biguanide, TZD, secretagogue, and insulin therapies characterized for their respective impacts on CE, HGU, GNG, IR, PIE, and PGU, identification of their effect on the glucose supply (decrease in CE, increase in HGU, decrease in GNG, decrease in IR) and insulin demand (increase in PIE, increase in PGU) dynamic was assessed according to Equation (2), which provides the SD ratio according to the invention: […]

[2] = test system: carbohydrate exposure (CE); test: Glucose supply and insulin demand model: effect on carbohydrate exposure; parameters: scale not given here; settings: for CE inhibition: adjustment factor = decrease in carbohydrate exposure at the therapeutic dose of Table 1, T2D
Protocol: as §1, §2, §3, §4

[3] = test system: peripheral glucose uptake (PGU); test: Glucose supply and insulin demand model: effect on peripheral glucose uptake; settings: for PGU: adjustment factor = increase in peripheral glucose uptake at the therapeutic dose of Table 1, T2D
Protocol: as §1, §2, §3, §4

[4] = test system: hepatic gluconeogenesis (GNG); test: Glucose supply and insulin demand model: effect on hepatic gluconeogenesis; settings: for GNG inhibition: adjustment factor = decrease in hepatic gluconeogenesis at the therapeutic dose of Table 1, T2D
Protocol: as §1, §2, §3, §4

[5] = test system: peripheral insulin exposure (PIE); test: Glucose supply and insulin demand model: effect on peripheral insulin exposure; parameters: PIE (24 h insulin exposure): unit not given here; settings: for PIE: adjustment factor = increase in peripheral insulin exposure at the therapeutic dose of Table 1, T2D
Protocol: as §1, §2, §3, §4
Twenty-four-hour steady state insulin concentration time curves were superimposed on the baseline secretion profile of the standard T2D patient.

[6] = test system: hepatic glucose uptake (HGU); test: Glucose supply and insulin demand model: effect on hepatic glucose uptake; settings: for HGU uptake: adjustment factor = increase in hepatic glucose uptake at the therapeutic dose of Table 1, T2D
Protocol: as §1, §2, §3, §4

[7] = Metformin 2000 mg, Glyburide 10 mg, Pioglitazone 45 mg, Insulin Glargine 0.5 U/kg daily, pH encapsulated glucose 3.0 grams/day
[8] = Insulin Glargine 1.0 U/Kg daily
[9] = insulin glargine 0.5 U/kg, from insulin dose-response relationship

Insulin Regular
IR reduction [1]: 0.00 | CE inhibition [2]: 0.00 | PGU [3]: 0.64 | GNG inhibition [4]: 0.11 | PIE [5]: 0.33 | HGU uptake [6]: 0.21

COc1ccc(Cl)cc1C(=O)NCCc1ccc(S(=O)(=O)NC(=O)NC2CCCCC2)cc1 [Glyburide]
Score IR [1, 7]: 0.00 | IR reduction [1]: 0.00 | Score CE [2, 7]: 0.00 | Score PGU [3, 7]: 0.36 | PGU [3]: 0.36 | Score HGI [4, 7]: 0.07 | GNG inhibition [4]: 0.07 | Score PIE [5, 7]: 0.21 | PIE [5]: 0.21 | Score HGU [6, 7]: 0.14 | HGU uptake [6]: 0.14

CCCNC(=O)NS(=O)(=O)c1ccc(Cl)cc1 [Chlorpropamide]
IR reduction [1]: 0.00 | PGU [3]: 0.36 | GNG inhibition [4]: 0.07 | PIE [5]: 0.21 | HGU uptake [6]: 0.14

C[C@H]1O[C@H](O[C@H]2[C@H](O)[C@@H](O)[C@@H](O[C@H]3[C@H](O)[C@@H](O)C(O)O[C@@H]3CO)O[C@@H]2CO)[C@H](O)[C@@H](O)[C@@H]1N[C@H]1C=C(CO)[C@@H](O)[C@H](O)[C@H]1O (some centres unmarked) [Acarbose]
IR reduction [1]: 0.15 | PGU [3]: 0.25 | GNG inhibition [4]: 0.05 | PIE [5]: 0.05 | HGU uptake [6]: 0.15

Insulin Isophane
IR reduction [1]: 0.00 | CE inhibition [2]: 0.00 | PGU [3]: 0.40 | GNG inhibition [4]: 0.10 | PIE [5]: 0.28 | HGU uptake [6]: 0.23

CCC1=C(C)CN(C(=O)NCCc2ccc(S(=O)(=O)NC(=O)N[C@H]3CC[C@H](C)CC3)cc2)C1=O [Glimepiride]
IR reduction [1]: 0.00 | PGU [3]: 0.39 | GNG inhibition [4]: 0.08 | PIE [5]: 0.24 | HGU uptake [6]: 0.18

Cc1ccc(S(=O)(=O)NC(=O)NN2CCCCCC2)cc1 [Tolazamide]
IR reduction [1]: 0.00 | PGU [3]: 0.36 | GNG inhibition [4]: 0.07 | PIE [5]: 0.21 | HGU uptake [6]: 0.14

Cc1cnc(C(=O)NCCc2ccc(S(=O)(=O)NC(=O)NC3CCCCC3)cc2)cn1 [Glipizide]
IR reduction [1]: 0.00 | GNG inhibition [4]: 0.08

Insulin Lispro Protamine
IR reduction [1]: 0.00 | CE inhibition [2]: 0.00 | PGU [3]: 0.40 | GNG inhibition [4]: 0.10 | PIE [5]: 0.28 | HGU uptake [6]: 0.23

Cc1c(C)c2c(c(C)c1O)CCC(C)(COc1ccc(CC3SC(=O)NC3=O)cc1)O2 (centres unmarked) [Troglitazone]
IR reduction [1]: 0.35 | PGU [3]: 0.67 | GNG inhibition [4]: 0.22 | PIE [5]: −0.10 | HGU uptake [6]: 0.40

CCc1ccc(CCOc2ccc(CC3SC(=O)NC3=O)cc2)nc1 (centres unmarked) [Pioglitazone]
Score IR [1, 7]: 0.35 | IR reduction [1]: 0.35 | Score CE [2, 7]: 0.00 | Score PGU [3, 7]: 0.59 | PGU [3]: 0.59 | Score HGI [4, 7]: 0.21 | GNG inhibition [4]: 0.21 | Score PIE [5, 7]: −0.10 | PIE [5]: −0.10 | Score HGU [6, 7]: 0.40 | HGU uptake [6]: 0.40

CCOc1cc(CC(=O)N[C@@H](CC(C)C)c2ccccc2N2CCCCC2)ccc1C(=O)O [Repaglinide]
IR reduction [1]: 0.00 | PGU [3]: 0.31 | GNG inhibition [4]: 0.07 | PIE [5]: 0.20 | HGU uptake [6]: 0.16

Insulin Glargine
Score IR [1, 8]: 0.00 | Score IR [1, 7]: 0.00 | IR reduction [1]: 0.00 | Score CE [2, 8]: 0.00 | Score CE [2, 7]: 0.00 | CE inhibition [2]: 0.00 | Score PGU [3, 8]: 0.84 | Score PGU [3, 7]: 0.42 | PGU [3]: 0.42 | increase in PGU [3, 9]: 42% | Score HGI [4, 8]: 0.20 | Score HGI [4, 7]: 0.10 | GNG inhibition [4]: 0.10 | decrease in GNG [4, 9]: 10% | Score PIE [5, 8]: 0.60 | Score PIE [5, 7]: 0.30 | PIE [5]: 0.30 | PIE (24 h insulin exposure) ([5]; insulin glargine 0.5 U/kg superimposed on standard T2D profile, baseline 5765): 7495 | increase in PIE versus baseline ([5]; insulin glargine 0.5 U/kg, 24 h profile superimposed on standard T2D profile, trapezoidal rule): 30% | Score HGU [6, 8]: 0.48 | Score HGU [6, 7]: 0.24 | HGU uptake [6]: 0.24 | increase in HGU [6, 9]: 24%

CN(CCOc1ccc(CC2SC(=O)NC2=O)cc1)c1ccccn1 (centres unmarked) [Rosiglitazone]
IR reduction [1]: 0.39 | GNG inhibition [4]: 0.23 | PIE [5]: −0.10

CC(C)[C@H]1CC[C@H](C(=O)N[C@H](Cc2ccccc2)C(=O)O)CC1 [Nateglinide]
IR reduction [1]: 0.00 | PGU [3]: 0.60 | GNG inhibition [4]: 0.11 | PIE [5]: 0.34 | HGU uptake [6]: 0.21

Insulin Aspart
IR reduction [1]: 0.00 | CE inhibition [2]: 0.00 | PGU [3]: 0.80 | GNG inhibition [4]: 0.14 | PIE [5]: 0.42 | HGU uptake [6]: 0.23

CCCCNC(=O)NS(=O)(=O)c1ccc(C)cc1 [Tolbutamide]
IR reduction [1]: 0.00 | PGU [3]: 0.36 | GNG inhibition [4]: 0.07 | PIE [5]: 0.21 | HGU uptake [6]: 0.14

Insulin Lente
IR reduction [1]: 0.00 | CE inhibition [2]: 0.00 | PGU [3]: 0.40 | GNG inhibition [4]: 0.10 | PIE [5]: 0.28 | HGU uptake [6]: 0.23

CC(=O)c1ccc(S(=O)(=O)NC(=O)NC2CCCCC2)cc1 [Acetohexamide]
IR reduction [1]: 0.00 | PGU [3]: 0.36 | GNG inhibition [4]: 0.07 | PIE [5]: 0.21 | HGU uptake [6]: 0.14
